Reference: ChEMBL document CHEMBL1201862, “PubChem BioAssay data set” (2004)
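Tested at 5 concentrations; 48 h exposure; 96-well plates; endpoints linearly interpolated, else capped at highest concentration. GI50 = concentration required for 50% inhibition of growth.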 The source made the active and inactive calls. Cut-off read from the data, not from the text of the source: active = GI50 up to about 1.1 µM and inactive = higher.

Columns and labels:
Experiment in all cases: NCI-60 cell line screen, 48 h
NCI/ADR-RES = system: NCI/ADR-RES
UACC-62 = system: UACC-62
MDA-MB-435 = system: MDA-MB-435
OVCAR-5 = system: OVCAR-5
CCRF-CEM = system: CCRF-CEM
MDA-N = system: MDA-N
SK-MEL-2 = system: SK-MEL-2
NCI-H460 = system: NCI-H460
HT-29 = system: HT-29
BT-549 = system: BT-549
SK-OV-3 = system: SK-OV-3
NCI-H226 = system: NCI-H226
IGROV-1 = system: IGROV-1
DU-145 = system: DU-145
SNB-19 = system: SNB-19
KM12 = system: KM12
MCF7 = system: MCF7
A549 = system: A549
CAKI-1 = system: CAKI-1
HOP-62 = system: HOP-62

Measured: GI50

O=P(O)(O)CC1OC(CO)C(O)C1O (stereo not given)
inactive: NCI/ADR-RES > 100 µM | UACC-62 > 100 µM | MDA-MB-435 > 100 µM | OVCAR-5 > 100 µM | CCRF-CEM > 100 µM | MDA-N > 100 µM | SK-MEL-2 > 100 µM | NCI-H460 > 100 µM | HT-29 > 100 µM | BT-549 > 100 µM | SK-OV-3 > 100 µM | NCI-H226 > 100 µM | IGROV-1 > 100 µM | DU-145 > 100 µM | SNB-19 > 100 µM | KM12 > 100 µM | MCF7 > 100 µM | A549 > 100 µM | CAKI-1 > 100 µM

CS(=O)(=O)Nc1ccc2ccccc2c1-c1c(NS(C)(=O)=O)ccc2ccccc12
inactive: NCI/ADR-RES > 25 µM | MDA-MB-435 > 25 µM | OVCAR-5 > 25 µM | CCRF-CEM > 25 µM | HOP-62 > 25 µM | MDA-N > 25 µM | SK-MEL-2 > 25 µM | NCI-H460 > 25 µM | HT-29 > 25 µM | BT-549 > 25 µM | SK-OV-3 > 25 µM | NCI-H226 > 25 µM | IGROV-1 > 25 µM | DU-145 > 25 µM | SNB-19 > 25 µM | KM12 > 25 µM | MCF7 1.17 µM | A549 > 25 µM | CAKI-1 > 25 µM

O=[N+]([O-])C(/C(Cl)=C(/Cl)N1CCOCC1)=C1\NCCO1
inactive: NCI/ADR-RES > 100 µM | UACC-62 > 100 µM | MDA-MB-435 > 100 µM | OVCAR-5 > 100 µM | CCRF-CEM > 100 µM | HOP-62 > 100 µM | MDA-N > 100 µM | SK-MEL-2 > 100 µM | NCI-H460 > 100 µM | HT-29 > 100 µM | BT-549 > 100 µM | SK-OV-3 > 100 µM | NCI-H226 > 100 µM | DU-145 > 100 µM | SNB-19 > 100 µM | KM12 > 100 µM | MCF7 > 100 µM | A549 > 100 µM | CAKI-1 > 100 µM

C=CC1=C(C)c2cc3[nH]c(c4c5nc(cc6[nH]c(cc1n2)c(C=O)c6CC)C(C)=C5C(=O)[C@@H]4C(=O)OC)[C@@H](CCC(=O)O)[C@@H]3C
inactive: NCI/ADR-RES > 100 µM | UACC-62 > 100 µM | MDA-MB-435 > 100 µM | OVCAR-5 > 100 µM | CCRF-CEM 31.3 µM | MDA-N > 100 µM | SK-MEL-2 > 100 µM | NCI-H460 > 100 µM | HT-29 > 100 µM | BT-549 > 100 µM | SK-OV-3 > 100 µM | NCI-H226 > 100 µM | IGROV-1 63.5 µM | DU-145 13.4 µM | SNB-19 > 100 µM | KM12 21.5 µM | MCF7 > 100 µM | A549 > 100 µM | CAKI-1 > 100 µM

COC(=O)CCC(C)[C@H]1CCC2C3C(C[C@H](OC(C)=O)[C@@]21C)[C@@]1(C)CCC2(C[C@H]1C[C@H]3OC(C)=O)OOC1(CCCC1)OO2 (stereo not given in full)
inactive: NCI/ADR-RES 84.5 µM | MDA-MB-435 29.9 µM | OVCAR-5 > 100 µM | CCRF-CEM 7.89 µM | HOP-62 10.3 µM | MDA-N 32.4 µM | SK-MEL-2 > 100 µM | NCI-H460 6.82 µM | HT-29 34.4 µM | BT-549 46 µM | SK-OV-3 > 100 µM | NCI-H226 27.9 µM | IGROV-1 5.6 µM | DU-145 27 µM | SNB-19 > 100 µM | KM12 23.3 µM | MCF7 31.5 µM | A549 12.9 µM | CAKI-1 12.2 µM
